{
  "source": "patent US12077503B2",
  "about": "“Substituted cyclic amides and their use as herbicides” (FMC CORPORATION, priority 2015, dated 2024)",
  "type_in_all_cases": "in vivo",
  "key": {"[1]": {"system": "ryegrass, Italian (Italian ryegrass, Lolium multiflorum)", "experiment": "Test A postemergence", "conditions": "Lolium multiflorum, post-emergence, 240 h, Postemergence, read-out: Ryegrass, Italian plant response rating (0 to 100 scale)", "outline": "(§1)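 Preemergence soil spray on seeded pots or post-emergence spray on 1–2 leaf plants, in loam–sand blend. Greenhouse ~10 d. Visual rating 0–100 against untreated plants.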"}, "[2]": {"system": "pigweed (Amaranthus retroflexus)", "experiment": "Test A postemergence", "conditions": "Amaranthus retroflexus, post-emergence, 240 h, Postemergence, read-out: Pigweed plant response rating (0 to 100 scale)", "outline": "as §1"}, "[3]": {"system": "barnyardgrass (Echinochloa crus-galli)", "experiment": "Test A postemergence", "conditions": "Echinochloa crus-galli, post-emergence, 240 h, Postemergence", "outline": "as §1"}, "corn (Zea mays)": {"system": "corn (Zea mays)", "experiment": "Test A postemergence", "conditions": "Zea mays, post-emergence, 240 h, Postemergence, read-out: Corn plant response rating (0 to 100 scale)", "outline": "as §1"}, "[4]": {"system": "ragweed (common ragweed, Ambrosia elatior)", "experiment": "Test A postemergence", "conditions": "Ambrosia artemisiifolia, post-emergence, 240 h, Postemergence, read-out: Ragweed plant response rating (0 to 100 scale)", "outline": "as §1"}, "[5]": {"system": "blackgrass (Alopecurus myosuroides)", "experiment": "Test A postemergence", "conditions": "Alopecurus myosuroides, post-emergence, 240 h, Postemergence, read-out: Blackgrass plant response rating (0 to 100 scale)", "outline": "as §1"}, "[6]": {"system": "wheat (Triticum aestivum)", "experiment": "Test A postemergence", "conditions": "Triticum aestivum, post-emergence, 240 h, Postemergence, read-out: Wheat plant response rating (0 to 100 scale)", "outline": "as §1"}, "Kochia (Kochia scoparia) [7]": {"system": "Kochia (Kochia scoparia)", "experiment": "Test A postemergence", "conditions": "Bassia scoparia, post-emergence, 240 h, Postemergence, read-out: Kochia plant response rating (0 to 100 scale)", "outline": "as §1"}, "[8]": {"system": "giant foxtail (Setaria faberii)", "experiment": "Test A postemergence", "conditions": "Setaria faberi, post-emergence, 240 h, Postemergence, read-out: Foxtail, Giant plant response rating (0 to 100 scale)", "outline": "as §1"}, "[9]": {"system": "Galium (catchweed bedstraw, Galium aparine)", "experiment": "Test A postemergence", "conditions": "Galium, post-emergence, 240 h, Postemergence, read-out: Galium plant response rating (0 to 100 scale)", "outline": "as §1"}, "[10]": {"system": "ryegrass, Italian (Italian ryegrass, Lolium multiflorum)", "experiment": "Test A preemergence", "conditions": "Lolium multiflorum, pre-emergence, 240 h, 0 to 100 scale where 0 is no effect and 100 is complete control, read-out: Ryegrass, Italian plant response rating", "outline": "as §1"}, "[11]": {"system": "pigweed (Amaranthus retroflexus)", "experiment": "Test A preemergence", "conditions": "Amaranthus retroflexus, pre-emergence, 240 h, 0 to 100 scale where 0 is no effect and 100 is complete control, read-out: Pigweed plant response rating"}, "[12]": {"system": "barnyardgrass (Echinochloa crus-galli)", "experiment": "Test A preemergence", "conditions": "Echinochloa crus-galli, pre-emergence, 240 h, 0 to 100 scale where 0 is no effect and 100 is complete control, read-out: Barnyardgrass plant response rating", "outline": "as §1"}, "[13]": {"system": "ragweed (common ragweed, Ambrosia elatior)", "experiment": "Test A preemergence", "conditions": "Ambrosia artemisiifolia, pre-emergence, 240 h, 0 to 100 scale where 0 is no effect and 100 is complete control, read-out: Ragweed plant response rating", "outline": "as §1"}, "Kochia (Kochia scoparia) [14]": {"system": "Kochia (Kochia scoparia)", "experiment": "Test A preemergence", "conditions": "Bassia scoparia, pre-emergence, 240 h, 0 to 100 scale where 0 is no effect and 100 is complete control, read-out: Kochia plant response rating", "outline": "as §1"}, "[15]": {"system": "giant foxtail (Setaria faberii)", "experiment": "Test A preemergence", "conditions": "Setaria faberi, pre-emergence, 240 h, 0 to 100 scale where 0 is no effect and 100 is complete control, read-out: Foxtail, Giant plant response rating", "outline": "as §1"}, "[16]": {"system": "sedge, umbrella (small-flower umbrella sedge, Cyperus difformis)", "experiment": "Test B flooded paddy test", "conditions": "Cyperus difformis, 250 g ai/ha, Flood; 0 to 100 scale where 0 is no effect and 100 is complete control; read-out: Sedge, Umbrella plant response rating", "outline": "(§2)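 Rating scale 0–100 (visual, vs untreated controls) after a 13–15 d greenhouse period; application to the flood layer, 3 cm above soil and maintained; plants at 2-leaf stage when treated.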"}, "[17]": {"system": "ducksalad (Heteranthera limosa)", "experiment": "Test B flooded paddy test", "conditions": "Heteranthera limosa, 250 g ai/ha, Flood; 0 to 100 scale where 0 is no effect and 100 is complete control; read-out: Ducksalad plant response rating", "outline": "as §2"}, "rice (Oryra sativa)": {"system": "rice (Oryra sativa)", "experiment": "Test B flooded paddy test", "conditions": "Oryza sativa, 250 g ai/ha, Flood; 0 to 100 scale where 0 is no effect and 100 is complete control; read-out: Rice plant response rating", "outline": "as §2"}, "[18]": {"system": "barnyardgrass (Echinochloa crus-galli)", "experiment": "Test B flooded paddy test", "conditions": "Echinochloa crus-galli, 250 g ai/ha, Flood; 0 to 100 scale where 0 is no effect and 100 is complete control; read-out: Barnyardgrass plant response rating", "outline": "as §2"}, "[19]": {"conditions": "125 g ai/ha, visual rating about 10 d after treatment"}, "[20]": {"conditions": "31 g ai/ha, 0 is no effect, 100 is complete control"}, "[21]": {"conditions": "125 g ai/ha, preemergence, visual injury rating, approximately 10 d"}},
  "data": [
    {"molecule": "CN1C[C@H](c2cccc(C#N)c2)[C@@H](C(=O)Nc2ccccc2F)C1=O", "note": "[Compound 1285]", "values": [
      {"measurement": "pest or weed control at 125 g/ha", "setting": "[1]; [19]", "value": 0, "unit": "%"},
      {"measurement": "pest or weed control at 31 g/ha", "setting": "[1]; [20]", "value": 0, "unit": "%"},
      {"measurement": "pest or weed control at 125 g/ha", "setting": "[2]; [19]", "value": 20, "unit": "%"},
      {"measurement": "pest or weed control at 31 g/ha", "setting": "[2]; [20]", "value": 20, "unit": "%"},
      {"measurement": "pest or weed control at 125 g/ha", "setting": "[3]; 125 g ai/ha, visual rating about 10 d after treatment, read-out: Barnyardgrass plant response rating (0 to 100 scale, 0 no effect, 100 complete control)", "value": 80, "unit": "%"},
      {"measurement": "pest or weed control at 31 g/ha", "setting": "[3]; 31 g ai/ha, 0 is no effect, 100 is complete control, read-out: Barnyardgrass plant response rating (0 to 100 scale)", "value": 60, "unit": "%"},
      {"measurement": "plant injury at 125 g/ha", "setting": "corn (Zea mays); [19]", "value": 0, "unit": "%"},
      {"measurement": "plant injury at 31 g/ha", "setting": "corn (Zea mays); [20]", "value": 0, "unit": "%"},
      {"measurement": "pest or weed control at 125 g/ha", "setting": "[4]; [19]", "value": 0, "unit": "%"},
      {"measurement": "pest or weed control at 31 g/ha", "setting": "[4]; [20]", "value": 0, "unit": "%"},
      {"measurement": "pest or weed control at 125 g/ha", "setting": "[5]; [19]", "value": 0, "unit": "%"},
      {"measurement": "pest or weed control at 31 g/ha", "setting": "[5]; [20]", "value": 0, "unit": "%"},
      {"measurement": "plant injury at 125 g/ha", "setting": "[6]; [19]", "value": 0, "unit": "%"},
      {"measurement": "plant injury at 31 g/ha", "setting": "[6]; [20]", "value": 0, "unit": "%"},
      {"measurement": "pest or weed control at 125 g/ha", "setting": "Kochia (Kochia scoparia) [7]; [19]", "value": 0, "unit": "%"},
      {"measurement": "pest or weed control at 31 g/ha", "setting": "Kochia (Kochia scoparia) [7]; [20]", "value": 0, "unit": "%"},
      {"measurement": "pest or weed control at 125 g/ha", "setting": "[8]; [19]", "value": 70, "unit": "%"},
      {"measurement": "pest or weed control at 31 g/ha", "setting": "[8]; [20]", "value": 40, "unit": "%"},
      {"measurement": "pest or weed control at 125 g/ha", "setting": "[9]; [19]", "value": 30, "unit": "%"},
      {"measurement": "pest or weed control at 31 g/ha", "setting": "[9]; [20]", "value": 20, "unit": "%"},
      {"measurement": "pest or weed control at 31 g/ha", "setting": "[10]; 31 g ai/ha, Preemergence", "value": 0, "unit": "%"},
      {"measurement": "pest or weed control at 125 g/ha", "setting": "[10]; [21]", "value": 0, "unit": "%"},
      {"measurement": "pest or weed control at 31 g/ha", "setting": "[11]; 31 g ai/ha, Preemergence", "value": 0, "unit": "%"},
      {"measurement": "pest or weed control at 125 g/ha", "setting": "[11]; [21]", "value": 0, "unit": "%"},
      {"measurement": "pest or weed control at 31 g/ha", "setting": "[12]; 31 g ai/ha, Preemergence", "value": 40, "unit": "%"},
      {"measurement": "pest or weed control at 125 g/ha", "setting": "[12]; [21]", "value": 90, "unit": "%"},
      {"measurement": "pest or weed control at 31 g/ha", "setting": "[13]; 31 g ai/ha, Preemergence", "value": 30, "unit": "%"},
      {"measurement": "pest or weed control at 125 g/ha", "setting": "[13]; [21]", "value": 30, "unit": "%"},
      {"measurement": "pest or weed control at 31 g/ha", "setting": "Kochia (Kochia scoparia) [14]; 31 g ai/ha, Preemergence", "value": 20, "unit": "%"},
      {"measurement": "pest or weed control at 125 g/ha", "setting": "Kochia (Kochia scoparia) [14]; [21]", "value": 30, "unit": "%"},
      {"measurement": "pest or weed control at 31 g/ha", "setting": "[15]; 31 g ai/ha, Preemergence", "value": 90, "unit": "%"},
      {"measurement": "pest or weed control at 125 g/ha", "setting": "[15]; [21]", "value": 100, "unit": "%"},
      {"measurement": "pest or weed control at 250 g/ha", "setting": "[16]", "value": 0, "unit": "%"},
      {"measurement": "pest or weed control at 250 g/ha", "setting": "[17]", "value": 90, "unit": "%"},
      {"measurement": "pest or weed control at 250 g/ha", "setting": "rice (Oryra sativa)", "value": 25, "unit": "%"},
      {"measurement": "pest or weed control at 250 g/ha", "setting": "[18]", "value": 60, "unit": "%"}
    ]}
  ]
}
